This note sets out measurements from patent US20100210017A1, “COMPOSITIONS AND METHODS FOR ENHANCING TOLERANCE FOR THE PRODUCTION OF ORGANIC CHEMICALS PRODUCED BY MICROORGANISMS” (priority 2007, published 2010).

What all share (format): cell-based
Assay [1] has as its system E. coli (vector control; clone expressing aroH mutant). The assay can be described thus: 24 hour minimum inhibitory concentration of 3-HP in M9 minimal media. As to conditions: Escherichia coli. The protocol:
By use of the SCALEs methodology, a number of genetic targets for alleviating growth inhibition in the presence of 3-HP have been identified. […] A clone was constructed containing the tyrA-aroF operon and was cultured in the presence of 20 g/L 3-HP. Increased copy of this region partially alleviated growth inhibition, conferring a 15% increase in specific growth. […] One method to bypass this inherent control was obtaining an inducible feedback resistant aroH mutant that will increase the conversion of E-4-P while maintaining activity in the presence of increasing pools of downstream products, thus alleviating growth inhibition due to impaired synthesis of necessary byproducts of the chorismate pathway. […] In addition, the 24 hour minimum inhibitory concentration of 3-HP (the minimum concentration to stop visible growth at 24 hours) in M9 minimal media increased from 25 g/L for a vector control to 40 g/L for an E. coli clone expressing this aroH mutant. In certain embodiments herein, it is contemplated that the aroH mutant can be of use alone, or in combination with other genetic manipulations or selection to increase tolerance of 3-HP production in microorganisms.

In assay [2] the test system is Escherichia coli strain Mach1-T1^R containing pSMART-LCKAN empty vector. In words: Growth confirmations: media supplementation in presence of 3-HP. As to conditions: for effect on specific growth in the presence of 3-HP: supplementation of the growth medium, 3-HP present. The text has this: Some methods concern wild-type Escherichia coli K12 (ATCC # 29425) used for the preparation of genomic DNA. Genomic libraries were constructed using the pSMART-LCKAN (Lucigen, Middleton, Wis.). Libraries were introduced into Escherichia coli strain Mach1-T1^R (Invitrogen, Carlsbad, Calif.) for selections as previously detailed. Mach1-T1^R containing pSMART-LCKAN empty vector were used for all control studies. Growth curves were done in MOPS Minimal Media. In this example, the antibiotic concentration was 20 ug kanamycin/mL.
Overnight cultures of Mach1-T1^R+pSMART LC-KAN were inoculated into 5 mL LB+kanamycin. Growth curves were constructed by inoculating into 15 mL screw cap tubes containing supplements (Table 1) and 15 mL MOPS Minimal Media+kanamycin+3-HP from overnight culture. Cultures were incubated at 37° C. and optical density was monitored to an OD600>0.2. Cultures were then diluted to an exact OD600=0.2 and were used to inoculate cultures containing 15 mL MOPS Minimal Media+kanamycin+3-HP (pH=7.0) to an initial optical density of […] in order to minimize effects of growth in stationary phase. Optical density was monitored and recorded over the entire range of microaerobic growth in minimal media, or until a final OD600 0.5-0.6. Growth parameters were evaluated in terms of specific growth, OD600 at the culmination of the growth phase (approximately 14 hours), and OD600 at conclusion of maximum growth phase and final OD600 (24 hrs). To address specific intermediate limitations, associated chorismate pathway supplements were added to final concentrations listed in Table 1.
To confirm these findings, the culture medium was supplemented with products synthesized downstream of chorismate. The addition of each product individually stimulated growth, further confirming that the inhibition is occurring at, or prior to synthesis of chorismate (FIG. 3B). FIG. 3B represents growth confirmations: addition of products downstream of chorismate partially alleviate growth inhibition confirmed by increased specific growth (black) and increased OD600 at the culmination of the growth phase (grey). However, increasing the supplementation of several downstream products (tyrosine, phenylalanine, tryptophan) results in feedback inhibition of the first committed step to the chorismate super-pathway and will therefore reduce formation of other downstream products including ubiquinone, meniquinone, and tetrahydrofolate and limit the associated growth benefits.

Assay [3] relates to bacterial culture capable of producing 3-HP. The assay can be described thus: 3-HP production with exogenously added tyrosine. The conditions noted are these: 0.2 mM tyrosine added to culture. How it is done:
In certain embodiments, exogenously added tyrosine can be added to a bacterial culture capable of producing 3-HP. In certain particular embodiments, tyrosine concentrations can be about 0.05 mM to about 0.5 mM. In one example, 0.2 mM tyrosine was added to a culture and the increase in 3-HP production was about 35%.

For a further assay, the system named is E. coli Mach1. The assay can be described thus: Minimum inhibitory concentration of acrylic acid in minimal media. The conditions noted are these: Escherichia coli. How it is done: 3-HP composition obtained, for example, from TCI America for initial library selections and all subsequent growth confirmations can contain variable amounts of acrylic acid contamination. A minimum inhibitory concentration of acrylic acid for E. coli Mach1 grown in minimal media was determined to be around 0.6 g/L. In support that the tolerance mechanism specific to the chorismate super-pathway are exclusive to 3-HP toxicity, the minimum inhibitory concentrations of acrylic acid was determined to be 0.6 g/L for E. coli Mach1 grown in minimal media supplemented with addition of shikimate or homocysteine. Additionally, the minimal inhibitory concentration was determined to be 0.6 g/L for the feedback resistant aroH mutants grown in minimal media.

Each structure is given as a SMILES string. Converted amounts (≈) assume the structure as drawn. Like-named read-outs stand apart in the source and are kept apart here.

Regarding `O=C(O)CCO` [3-HP, 3-hydroxypropionic acid], the MIC was determined as 40000 µg/mL in assay [1] (read-out: 24 hour minimum inhibitory concentration (minimum concentration to stop visible growth at 24 hours), M9 minimal media, E. coli clone expressing feedback resistant aroH mutant) and 25000 µg/mL in assay [1] (read-out: 24 hour minimum inhibitory concentration (minimum concentration to stop visible growth at 24 hours), M9 minimal media, vector control).

On to `N[C@@H](Cc1ccccc1)C(=O)O` [Phenylalanine, phenylalanine], for which, in assay [2], the “effect on specific growth in the presence of 3-HP” value (shortened to “effect on specific growth”) was “detrimental effect”.

As for `O=C(O)C1=C[C@@H](O)[C@@H](O)[C@H](O)C1` [Shikimate, shikimate], in assay [2] (addition of shikimate to growth media under 3-HP stress), the “regeneration of growth compared with wild-type growth” value is on record as “about 20%”. Moreover, the “effect on specific growth” value in assay [2] was “dramatic increase in growth”.

For the molecule `N[C@@H](Cc1ccc(O)cc1)C(=O)O` [Tyrosine, tyrosine], the “effect on specific growth” value in assay [2] is given as “beneficial effect”. In addition, the “increase in 3-HP production” value in assay [3] is reported as “about 35%”.

In the case of `C=CC(=O)O` [acrylic acid], the MIC in the assay with E. coli Mach1 (MACH1, E. coli Mach1, minimal media supplemented with shikimate or homocysteine, read-out: minimum inhibitory concentration) was 600 µg/mL (≈ 8.33 mM); in the assay with E. coli Mach1 (MACH1, E. coli Mach1 grown in minimal media, read-out: minimum inhibitory concentration), ~600 µg/mL (≈ 8.33 mM); in the assay on E. coli Mach1 (MACH1, read-out: minimal inhibitory concentration, feedback resistant aroH mutants grown in minimal media) it was 600 µg/mL (≈ 8.33 mM).
